One assay deals with HL-60 cells. Briefly: Flow cytometry of apoptosis (c-PARP+, aqua amine+) in HL-60 cells. The format is cell-based, human. Conditions: Homo sapiens, 72 hours, 2 mM, read-out: cells apoptotic or non-viable. As to the method:
AML cell lines were purchased from ATCC and maintained with IMDM (Gibco) supplemented with 10% FBS (Fisher Scientific) and 1% PSG (Gibco). Cells were plated at a density of 2-4×10^5 cells/ml, and treated with various doses of Compound A in 0.1% DMSO or 0.1% DMSO alone. Cell counts and viability were determined using the Vi-CELL XR Cell Viability Analyzer (Beckman Coulter). HL-60 and KG-1 cells overexpressing CREB or CBP were generated using lentiviral gene delivery with subsequent puromycin selection and FACs sorting for GFP. CREB knockdown was achieved by infecting cells with a lentivirus expressing the shRNA sequence 5′-[…]-3′ (SEQ ID NO:). For chemotherapy combination experiments, combination index values were calculated using median effects analysis on Calcusyn software. Human patient bone marrow samples were cultured in DMEM plus 20% FBS and 1×PSG, supplemented with recombinant GM-CSF (20 ng/ml), G-CSF (20 ng/ml), SCF (50 ng/ml), IL-3 (20 ng/ml), and IL-6 (10 ng/ml). Cells were plated at a concentration of 1×10^5 cells/ml in a 12-well plate. Vehicle (0.1% DMSO) or Compound A (2 μM) was added for up to 72 hours. All samples contained >85% AML blasts and were not sorted prior to performing experiments. […] Single cell suspensions of bone marrow culture were subsequently analyzed on a D×P10 flow cytometer (Cytek). […]
(In general: A flow cytometer gives signals particle by particle.)

Assay [1] concerns Bcl-2, Mcl-1, Bcl-XL expression in HL-60 cells. Briefly: RT-PCR and Western blot of anti-apoptotic proteins in HL-60 cells. It is filed as cell-based, human. Details: transcription of Bcl-2: dose or concentration left out as unconfirmed. As to the method: Total RNA was isolated using the Aurum RNA Isolation Mini Kit, and the iScript cDNA Synthesis Kit was used to prepare samples for qPCR (Bio-Rad). PCR was performed on the CFX384 Real-Time System (Bio-Rad) and results were analyzed using the Livak method. For analysis of RNA-seq data as target genes of known transcription factors, a curated list of all human target genes was extracted from the TRANSFAC Pro database.
Cells were lysed in RIPA buffer (Sigma), and the protein concentrations were determined by BCA assay (Thermo Scientific Pierce). Lysates were solubilized in 6×SDS PAGE buffer and […] of protein was loaded into 6-15% SDS PAGE gels, pheresed, and then transferred onto […] PVDF membrane (Millipore). Primary antibodies were applied at a dilution of 1:1000. Anti-Bcl-2, -Bax, -Mcl-1, -Bcl-XL, -Cyclin A and -Cyclin D1 antibodies were purchased from Cell Signaling Technologies. Anti-total acetylated histone and -ac-H3K27 were purchased from Santa Cruz Biotechnologies. Anti-actin and -CREB antibodies were purchased from upstate. Secondary antibodies were used at a 1:2500 dilution and purchased from Thermo Scientific/Pierce. WesternBright ECL was used for image acquisition on Image Lab software (Bio-Rad).
The balance between pro- and anti-apoptotic protein expression contributes to cell fate decisions. CREB regulates the expression of several anti-apoptotic proteins, including Bcl-2, Bcl-XL and Mcl-1. Bcl-2 expression in particular is known to mediate resistance to chemotherapy and influence clinical outcome in a number of cancer types, including AML. The ability of Compound A to cause apoptosis by disrupting the CREB-driven expression of these anti-apoptotic proteins was examined. In HL-60 cells treated with Compound A, apoptosis is induced in a dose- and time-dependent manner. […] Compound A elicited apoptosis through the intrinsic apoptosis pathway, with activation of Caspase-3 (FIG. 5, panel B) and detectable Caspase-9 cleavage (data not shown). […]
(In general: A western blot detects proteins with antibodies after separation by electrophoresis.)

On to `N#Cc1ccc(NC(=O)c2cc3ccccc3cc2O)cc1` [Compound A, N-(4-cyanophenyl)-3-hydroxy-2-naphthamide], for which the cytotoxicity at 2000 µM with HL-60 cells is > 95%. For the same compound, in assay [1], the Bcl-XL expression result is “remained constant” and the “expression of Mcl-1” value is recorded as “initially increased, then decreased at 72 hours”. Further, the “transcription of Bcl-2” value in assay [1] (72 hours) is “decreased”.

The values are drawn from patent publication US20210205292A1, “INHIBITORS OF CREB-CBP INTERACTION FOR TREATMENT OF LEUKEMIA” (The Board of Trustees of the Leland Stanford Junior …, priority 2016, published 2021).
